Test results reported in ChEMBL document CHEMBL4842321, “Novel benzenesulfonamides aryl and arylsulfone conjugates adopting tail/dual tail approaches: Synthesis, carbonic anhydrase inhibitory activity and molecular modeling studies” (Eur J Med Chem, 2021).

How the values were obtained:
[1] = biological target: Carbonic anhydrase 9 (Homo sapiens, UniProt Q16790); assay: Inhibition of recombinant human carbonic anhydrase 9 by stopped-flow CO2 hydration assay
[2] = test system: MCF-10A; assay: cells; conditions: Homo sapiens
Description: Antiproliferation activity against human MCF-10A cells assessed as reduction in cell viability under hypoxic conditions by MTT assay

[3] = test system: MCF7; assay: Antiproliferation activity against human MCF7 cells assessed as reduction in cell viability under hypoxic conditions by MTT assay
[4] = biological target: Carbonic anhydrase 4 (Homo sapiens, UniProt P22748); assay: Inhibition of recombinant human carbonic anhydrase 4 by stopped-flow CO2 hydration assay
Sequence of Carbonic anhydrase 4 (P22748 whole entry): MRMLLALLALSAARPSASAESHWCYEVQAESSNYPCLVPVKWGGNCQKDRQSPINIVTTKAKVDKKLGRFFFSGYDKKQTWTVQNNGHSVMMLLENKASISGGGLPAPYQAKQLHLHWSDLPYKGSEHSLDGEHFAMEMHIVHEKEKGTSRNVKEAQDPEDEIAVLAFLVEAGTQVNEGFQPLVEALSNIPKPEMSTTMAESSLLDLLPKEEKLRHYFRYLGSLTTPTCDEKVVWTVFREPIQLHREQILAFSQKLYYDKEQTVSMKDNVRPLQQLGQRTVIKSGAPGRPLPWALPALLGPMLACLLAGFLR

[5] = biological target: Carbonic anhydrase 2 (Homo sapiens, UniProt P00918); assay: Inhibition of recombinant human carbonic anhydrase 2 by stopped-flow CO2 hydration assay
[6] = biological target: Carbonic anhydrase 1 (Homo sapiens, UniProt P00915); assay: Inhibition of recombinant human carbonic anhydrase 1 by stopped-flow CO2 hydration assay
Sequence of Carbonic anhydrase 1 (P00915 whole entry): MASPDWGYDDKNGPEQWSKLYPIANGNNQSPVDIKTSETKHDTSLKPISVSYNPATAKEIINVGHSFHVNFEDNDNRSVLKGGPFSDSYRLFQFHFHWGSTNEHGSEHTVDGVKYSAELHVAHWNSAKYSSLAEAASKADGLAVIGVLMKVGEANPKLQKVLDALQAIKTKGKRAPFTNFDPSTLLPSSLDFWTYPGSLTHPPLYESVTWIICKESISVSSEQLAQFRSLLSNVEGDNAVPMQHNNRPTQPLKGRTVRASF

SMILES | Ki [1] | IC50 [2] | IC50 [3] | Ki [4] | Ki [5] | Ki [6]
NS(=O)(=O)c1ccc(N/C=C(\C(=O)c2ccccc2)S(=O)(=O)c2ccccc2)cc1 | 2.76 µM | 17.9 µM | 3.44 µM | – | – | –
NS(=O)(=O)c1ccc(N/N=C(/CS(=O)(=O)c2ccccc2)c2ccc(Br)cc2)cc1 | 0.909 µM | 12.9 µM | 17.3 µM | – | – | –
C/C(=N/NC(=O)c1ccc(S(N)(=O)=O)cc1)c1ccc(Cl)cc1 | 0.319 µM | 62.7 µM | 3.75 µM | – | – | –
NS(=O)(=O)c1ccc(C(=O)N/N=C(/CS(=O)(=O)c2ccccc2)c2ccc(Br)cc2)cc1 | 0.289 µM | 34.1 µM | 19.1 µM | – | – | –
NS(=O)(=O)c1ccc(C(=O)N/N=C(/CS(=O)(=O)c2ccccc2)c2ccc(F)cc2)cc1 | 1.12 µM | 63.7 µM | 0.62 µM | – | – | –
O=C(O)c1ccc(N/N=C(/CS(=O)(=O)c2ccccc2)c2ccc(Br)cc2)cc1 | > 100 µM | – | – | > 100 µM | > 100 µM | > 100 µM
C/C(=N/NC(=O)c1ccc(S(N)(=O)=O)cc1)c1ccc(Br)cc1 | 0.962 µM | 37.6 µM | 2.29 µM | – | – | –
O=C(O)c1ccc(N/C=C(\C(=O)c2ccc(Br)cc2)S(=O)(=O)c2ccccc2)cc1 | > 100 µM | – | – | > 100 µM | – | > 100 µM
NS(=O)(=O)c1ccc(C(=O)N/N=C\c2ccccc2)cc1 | 0.869 µM | 39.4 µM | 14.9 µM | – | – | –
NS(=O)(=O)c1ccc(C(=O)N/N=C\c2ccc(Br)cc2)cc1 | 2.21 µM | 27.7 µM | 1.37 µM | – | – | –
NS(=O)(=O)c1ccc(N/N=C(/CS(=O)(=O)c2ccccc2)c2ccc(Cl)cc2)cc1 | 2.91 µM | 28.6 µM | 8.01 µM | – | – | –
NS(=O)(=O)c1ccc(C(=O)N/N=C\c2ccc(F)cc2)cc1 | 2.37 µM | 35.9 µM | 9.17 µM | – | – | –
O=C(O)c1ccc(N/N=C(/CS(=O)(=O)c2ccccc2)c2ccc(Cl)cc2)cc1 | > 100 µM | – | – | – | – | > 100 µM
NS(=O)(=O)c1ccc(C(=O)N/N=C(/CS(=O)(=O)c2ccccc2)c2ccc(Cl)cc2)cc1 | 0.818 µM | 25.6 µM | 57 µM | – | – | –
NS(=O)(=O)c1ccc(C(=O)N/N=C(/CS(=O)(=O)c2ccccc2)c2ccccc2)cc1 | 0.769 µM | 84.8 µM | 10.7 µM | – | – | –
O=c1[nH]cc(F)c(=O)[nH]1 [FLUOROURACIL] | – | 17.2 µM | 12.5 µM | – | – | –
O=C(O)c1ccc(N/C=C(\C(=O)c2ccccc2)S(=O)(=O)c2ccccc2)cc1 | > 100 µM | – | – | > 100 µM | > 100 µM | > 100 µM
C/C(=N/NC(=O)c1ccc(S(N)(=O)=O)cc1)c1ccc(F)cc1 | 1.45 µM | 22 µM | 31.9 µM | – | – | –
NS(=O)(=O)c1ccc(N/C=C(\C(=O)c2ccc(Cl)cc2)S(=O)(=O)c2ccccc2)cc1 | 3.01 µM | 28 µM | 15.1 µM | – | – | –
O=C(O)c1ccc(N/N=C(\C(=O)c2ccccc2)S(=O)(=O)c2ccccc2)cc1 | > 100 µM | – | – | > 100 µM | > 100 µM | > 100 µM
NS(=O)(=O)c1ccc(N/N=C(\C(=O)c2ccccc2)S(=O)(=O)c2ccccc2)cc1 | 1.61 µM | 14.1 µM | 1.74 µM | – | – | –
NS(=O)(=O)c1ccc(C(=O)N/N=C\c2ccc(Cl)cc2)cc1 | 2.09 µM | 82 µM | 36.7 µM | – | – | –
O=C(O)c1ccc(N/C=C(\C(=O)c2ccc(Cl)cc2)S(=O)(=O)c2ccccc2)cc1 | > 100 µM | – | – | > 100 µM | > 100 µM | > 100 µM
C/C(=N/NC(=O)c1ccc(S(N)(=O)=O)cc1)c1ccccc1 | 0.322 µM | 31.1 µM | 20.1 µM | – | – | –
O=C(O)c1ccc(N/N=C(/CS(=O)(=O)c2ccccc2)c2ccccc2)cc1 | > 100 µM | – | – | > 100 µM | – | –
NS(=O)(=O)c1ccc(N/C=C(\C(=O)c2ccc(Br)cc2)S(=O)(=O)c2ccccc2)cc1 | 3.03 µM | 20.4 µM | 62.7 µM | – | – | –
NS(=O)(=O)c1ccc(N/N=C(/CS(=O)(=O)c2ccccc2)c2ccccc2)cc1 | 2.49 µM | 46.1 µM | 3.97 µM | – | – | –
